Results on 24 compounds are retold here after US20230053649A1 (Cedilla Therapeutics, Inc., priority 2021, published 2023).

The subject of experiment [1] is mesothelioma cell line NCI-H226. Description: 72H TEAD Proliferation Assay (Cell Titer-Glo 2.0). It is filed as cell-based. The conditions noted are these: Homo sapiens, CTG 2.0, cell line not given in Table 1 (NCI-H226 TEAD-responsive, NCI-H28 non-responsive counter-screen). The protocol:
72H TEAD Proliferation Assay.
The effect of TEAD inhibition on cell proliferation was assayed using Cell Titer Glo (CTG) 2.0 to measure response in mesothelioma cell lines NCI-H226 (ATCC, #CRL-5826) and NCI-H28 (ATCC, #CRL-5820).
The 72H TEAD Proliferation assay utilizes Cell Titer-Glo 2.0 (Promega, #G9243) to measure the proliferation of cells in the presence or absence of compound. Cell Titer-Glo 2.0 determines the amount of viable cells by quantifying ATP (an indication of metabolically active cells). It utilizes the conversion of Luciferin to Oxyluciferin and a luminescent signal with the use of ATP to report the quantity of viable cells in culture. Within cells that are continually growing, ATP is being synthesized to meet their metabolic demands, meanwhile the opposite is true for cells that are dying or slowing down their proliferation and either no longer using ATP or are using less, respectively. The NF2-deficient NCI-H226 has been genetically validated as a cell line that is sensitive to TEAD inhibition. The NF2-wild type NCI-H28 has been genetically validated as a cell line that is not sensitive to TEAD inhibition and grows independently of TEAD activity.
Compounds were screened against the responsive NCI-H226 cell line to assess the compounds' ability to inhibit TEAD and cell growth. Compounds were also screened against the non-responsive NCI-H28 cell line to ascertain whether the inhibition of cell growth was due to inhibition of the target TEAD or whether the inhibition was due to off-target cytotoxicity.
Both NCI-H226 and NCI-H28 cells were grown at 37° C. with 5% CO2 using Growth Medium 1.
Anti-proliferative effect of compounds that inhibits TEAD activity measured by CTG
1) Assay ready plates (ARPs) were prepared by Echo acoustic liquid handler. For each compound, duplicate of 10-point half-log dilution series were dispensed in a 384-well microplate (Corning 3571).
3) Before use, ARPs were allowed to warm up to room temperature for 30 min.
4) ARPs were spun for 5 minutes at 1500RPM before removing the plate seals.
5) NCI-H226 or NCI-H28 cells were harvested from culture in Assay Medium 1 and the multidrop Combi reagent dispenser was used to seed cells at 500 cells per 50ul in each well of the ARPs and one Corning 3571 plate without compounds for Time 0 (TO) readout.
6) The TO plate was incubated for 2 hours at 37° C. with 5% CO2 to allow cells to settle, then the CTG Assay was performed.
7) All ARPs were incubated for 72 hours at 37° C. with 5% CO2, then the CTG Assay was performed for Time 72H (T72) readout.
8) CTG Assay: Bravo liquid handler (Agilent) was used to add 25ul of CTG 2.0 to all columns of the plate except for Column 24, which was used to subtract out the background. After CTG addition, plates were placed on shaker at 800RPM for 15 minutes at room temperature and kept in the dark. Luminescence was measured using EnVision multilabel plate reader with ultra-sensitive detection module.
9) Data Analysis: First background luminescence (no CTG wells) was subtracted from luminescence reading of all wells, then TO luminescence was subtracted from T72 luminescence. To compare anti-proliferative effect of compounds, GI50 was obtained by fitting dose response curves with nonlinear regression curve fit.

Experiment [2] addresses TEAD1 protein (YAP Binding Domain) (Homo sapiens, UniProt P28347). Description: biochemical.
Protocol: Compound Displacement Assay.
A TEAD1 lipid pocket displacement assay was carried out according to the following protocol. Purified His-tagged TEAD1 protein (YAP Binding Domain) was pre-mixed with a Cy5-probe (Cy5-conjugated to a small molecule that binds in the TEAD1 lipid pocket) and Terbium-labeled anti-His antibody (Cisbio Cat 61HI2TLB). The binding of the Cy5-probe to anti-His-Tb/His-tag TEAD1 complex yielded a TR-FRET signal. […] After 60 minutes incubation at room temperature of compounds with the His-TEAD1/anti-His-Tb/Cy5-probe complex, the plate was read on a plate reader (BMG ClarioStar Cat 430-1300) using TR-FRET mode with wavelengths of 665 nm/620 nm. The potency of compounds as TEAD1 lipid pocket binders was determined by IC50 value generated using a non-linear 4 parameter curve fit.

The GI50 is the concentration giving 50% growth inhibition. Low values mean greater sensitivity of the cells, high ones lower sensitivity of the cells. By IC50 is commonly meant the concentration that gives 50% inhibition.

Some results are limits rather than exact numbers.

Chain of TEAD1 protein (YAP Binding Domain) (P28347 167-426 limits assumed): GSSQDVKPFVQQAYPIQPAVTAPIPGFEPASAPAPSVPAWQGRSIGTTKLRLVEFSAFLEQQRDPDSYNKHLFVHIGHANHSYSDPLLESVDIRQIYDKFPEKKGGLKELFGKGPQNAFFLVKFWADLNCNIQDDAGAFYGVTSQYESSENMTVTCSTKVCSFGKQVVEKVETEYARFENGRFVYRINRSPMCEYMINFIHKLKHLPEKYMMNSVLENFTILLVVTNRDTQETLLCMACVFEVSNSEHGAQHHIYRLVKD

Regarding `COc1cc(-c2ccc(OCC(F)(F)F)cc2)c2ncc(C(=O)N[C@H](C)CO)cc2c1` [Compound I-18, (R)-N-(1-hydroxypropan-2-yl)-6-methoxy-8-(4-(2,2,2-trifluoroethoxy)phenyl)quinoline-3-carboxamide], in experiment [1], the concentration for 50% growth inhibition (GI50) lay in the range of 1000 to 5000 nM. The compound also yielded an IC50 in experiment [2] of 150 to 300 nM.

`COc1cc(-c2ccc(Oc3ccccc3)cc2)c2ncc(C(=O)N[C@H](C)CO)cc2c1` [Compound I-19, (R)-N-(1-hydroxypropan-2-yl)-6-methoxy-8-(4-phenoxyphenyl)quinoline-3-carboxamide]: in experiment [1], the GI50 was over 5000 nM. Also, the IC50 in experiment [2] was 150 to 300 nM.

As to `COc1cc(-c2ccc(OC3CC3)cc2)c2ncc(C(=O)N[C@H](C)CO)cc2c1` [Compound I-20, (R)-8-(4-cyclopropoxyphenyl)-N-(1-hydroxypropan-2-yl)-6-methoxyquinoline-3-carboxamide], the 50% growth inhibitory concentration (GI50) in experiment [1] was at most 500 nM. In experiment [2], this compound came in with an IC50 of under 150 nM.

The compound `CC(CO)NC(=O)c1ccc2c(OCC3CCC(F)(F)CC3)cccc2c1` (stereo not drawn) [Compound I-22, 5-((4,4-Difluorocyclohexyl)methoxy)-N-(1-hydroxypropan-2-yl)-2-naphthamide] had a GI50 in experiment [1] of at most 500 nM. This compound also gave an IC50 in experiment [2] of 150 to 300 nM.

`COC[C@H](C)NC(=O)c1cnc2c(N3CCC(C(F)(F)F)CC3)cc(OC(F)(F)F)cc2c1` [Compound I-23, (S)-N-(1-methoxypropan-2-yl)-6-(trifluoromethoxy)-8-(4-(trifluoromethyl)piperidin-1-yl)quinoline-3-carboxamide] registered a GI50 in experiment [1] of 1000 to 5000 nM. In experiment [2], this compound returned an IC50 of 300 to 500 nM.

In turn, `C[C@H](CO)NC(=O)c1cnc2c(N3CCC4(CC3)CC4)cc(OC(F)(F)F)cc2c1` [Compound I-24, (R)-N-(1-hydroxypropan-2-yl)-8-(6-azaspiro[2.5]octan-6-yl)-6-(trifluoromethoxy)quinoline-3-carboxamide] returned a concentration for 50% growth inhibition (GI50) in experiment [1] of over 5000 nM. Moreover, the IC50 in experiment [2] was over 500 nM.

`C[C@H](CO)NC(=O)c1cnc2c(N3CCC4(CC3)CC4)cc(OC3CC3)cc2c1` [Compound I-25, (R)-6-cyclopropoxy-N-(1-hydroxypropan-2-yl)-8-(6-azaspiro[2.5]octan-6-yl)quinoline-3-carboxamide]: the GI50 in experiment [1] lay within 1000 to 5000 nM. In addition, the IC50 in experiment [2] is over 500 nM.

In experiment [1], `COC[C@H](C)NC(=O)c1cnc2c(N3CCC(C(F)(F)F)CC3)cc(OC3CC3)cc2c1` [Compound I-26, (S)-6-cyclopropoxy-N-(1-methoxypropan-2-yl)-8-(4-(trifluoromethyl)piperidin-1-yl)quinoline-3-carboxamide] gave a GI50 of 500 to 1000 nM. The same compound showed an IC50 in experiment [2] of 300 to 500 nM.

`COC[C@H](C)NC(=O)c1cnc2c(N3CCC(C(F)(F)F)CC3)cc(OC(F)F)cc2c1` [Compound I-28, (S)-6-(difluoromethoxy)-N-(1-methoxypropan-2-yl)-8-(4-(trifluoromethyl)piperidin-1-yl)quinoline-3-carboxamide]: the GI50 in experiment [1] was in the range of 500 to 1000 nM. Moreover, in experiment [2], the IC50 lay within 150 to 300 nM.

For the compound `COc1cc(N2CCC(C(F)(F)F)CC2)c2ncc(C(=O)N[C@@H](CO)C(C)C)cc2c1` [Compound I-35, (R)-N-(1-hydroxy-3-methylbutan-2-yl)-6-methoxy-8-(4-(trifluoromethyl)piperidin-1-yl) quinolone-3-carboxamide], in experiment [1], the GI50 lay within 500 to 1000 nM. Also, the IC50 in experiment [2] is 300 to 500 nM.

`COc1cc(N2CCC(C(F)(F)F)CC2)c2ncc(C(=O)N[C@@H](CO)C3CC3)cc2c1` [Compound I-36] gave a concentration for 50% growth inhibition (GI50) in experiment [1] of 500 to 1000 nM. Moreover, the IC50 in experiment [2] was in the range of 150 to 300 nM.

The compound `COc1cc(N2CCC(C(F)(F)F)CC2)c2ncc(C(=O)N[C@@H](C)c3ccccn3)cc2c1` [Compound I-37, (S)-6-methoxy-N-(1-(pyridin-2-yl)ethyl)-8-(4-(trifluoromethyl)piperidin-1-yl)quinoline-3-carboxamide] displayed a GI50 in experiment [1] of at most 500 nM. The compound also yielded an IC50 in experiment [2] of 150 to 300 nM.

The compound `COc1cc(N2CCC(C(F)(F)F)CC2)c2ncc(C(=O)NC(C)C)cc2c1` [Compound I-38, N-isopropyl-6-methoxy-8-(4-(trifluoromethyl)piperidin-1-yl)quinoline-3-carboxamide] had a GI50 in experiment [1] of at most 500 nM. In experiment [2], this compound had an IC50 of 150 to 300 nM.

Turning to `COc1cccc([C@H](C)NC(=O)c2cnc3c(N4CCC(C(F)(F)F)CC4)cc(OC)cc3c2)c1` [Compound I-39, (S)-6-methoxy-N-(1-(3-methoxyphenyl)ethyl)-8-(4-(trifluoromethyl)piperidin-1-yl)quinoline-3-carboxamide], the 50% growth inhibitory concentration (GI50) in experiment [1] is at most 500 nM. Besides, the half-maximal inhibitory concentration (IC50) in experiment [2] is over 500 nM.

For `COc1cc(N2CCC(C(F)(F)F)CC2)c2ncc(C(=O)N[C@@H](CO)C(C)(C)C)cc2c1` [Compound I-40, (R)-N-(1-hydroxy-3,3-dimethylbutan-2-yl)-6-methoxy-8-(4-(trifluoromethyl)piperidin-1-yl)quinoline-3-carboxamide], in experiment [1], the GI50 was in the range of 500 to 1000 nM. Besides, in experiment [2], the IC50 lay in the range of 150 to 300 nM.

Turning to `COc1cc(N2CCC(C(F)(F)F)CC2)c2ncc(C(=O)N[C@@H](C)C(=O)O)cc2c1` [Compound I-41, (6-methoxy-8-(4-(trifluoromethyl)piperidin-1-yl)quinoline-3-carbonyl)-L-alanine], the GI50 in experiment [1] is over 5000 nM. In experiment [2], this compound had a 50% inhibitory concentration (IC50) of 150 to 300 nM.

`COc1cc(N2CCC(C(F)(F)F)CC2)c2ncc(C(=O)N[C@H](C)C(=O)O)cc2c1` [Compound I-42, (6-Methoxy-8-(4-(trifluoromethyl)piperidin-1-yl)quinoline-3-carbonyl)-D-alanine] came in with a GI50 in experiment [1] of over 5000 nM. Also, the IC50 in experiment [2] is 150 to 300 nM.

The compound `COc1cc(N2CCC(C(F)(F)F)CC2)c2ncc(C(=O)N[C@@H](C)c3cccc(C(=O)O)c3)cc2c1` [Compound I-43, (S)-3-(1-(6-methoxy-8-(4-(trifluoromethyl)piperidin-1-yl)quinoline-3-carboxamido)ethyl)benzoic acid] had a GI50 in experiment [1] of over 5000 nM. For the same compound, the IC50 in experiment [2] was under 150 nM.

Compound `CC(NC(=O)c1ccc2c(OCC3CCC(F)(F)CC3)cccc2c1)c1ccccn1` (stereo not drawn) [Compound I-45, 5-((4,4-difluorocyclohexyl)methoxy)-N-(1-(pyridin-2-yl)ethyl)-2-naphthamide] gave a GI50 in experiment [1] of 1000 to 5000 nM. Also, the IC50 in experiment [2] is under 150 nM.

Compound `CC(NC(=O)c1cnc2c(OCC3CCC(F)(F)CC3)cccc2c1)c1ccccn1` (stereo not drawn) [Compound I-46, 8-((4,4-Difluorocyclohexyl)methoxy)-N-(1-(pyridin-2-yl)ethyl)quinoline-3-carboxamide] gave a GI50 in experiment [1] of 1000 to 5000 nM. In experiment [2], the IC50 is 300 to 500 nM.

In experiment [1], `CC(CO)NC(=O)c1cnc2c(OCC3CCC(F)(F)CC3)cccc2c1` (stereo not drawn) [Compound I-47, 8-((4,4-difluorocyclohexyl)methoxy)-N-(1-hydroxypropan-2-yl)quinoline-3-carboxamide] registered a GI50 of over 5000 nM. The IC50 in experiment [2] was over 500 nM.

In turn, `Cc1cc2cc(C(=O)N[C@H](C)CO)ccc2c(N2CCC(C(F)(F)F)CC2)n1` [Compound I-48, (R)-N-(1-hydroxypropan-2-yl)-3-methyl-1-(4-(trifluoromethyl)piperidin-1-yl)isoquinoline-6-carboxamide] displayed a GI50 in experiment [1] of at most 500 nM. For the same compound, the IC50 in experiment [2] lay within 150 to 300 nM.

`COc1cc2cc(C(=O)N[C@H](C)CO)ccc2c(N2CCC(C(F)(F)F)CC2)n1` [Compound I-49, (R)-N-(1-hydroxypropan-2-yl)-3-methoxy-1-(4-(trifluoromethyl)piperidin-1-yl)isoquinoline-6-carboxamide] came in with a 50% growth inhibitory concentration (GI50) in experiment [1] of at most 500 nM. The IC50 in experiment [2] is under 150 nM.

On to `COC[C@H](C)NC(=O)c1ccc2c(N3CCC(C(F)(F)F)CC3)nc(OC)cc2c1` [Compound I-50, (S)-3-Methoxy-N-(1-methoxypropan-2-yl)-1-(4-(trifluoromethyl)piperidin-1-yl)isoquinoline-6-carboxamide], for which the GI50 in experiment [1] is 500 to 1000 nM. The IC50 in experiment [2] was under 150 nM.
